Assay results published in patent publication EP4596537A1, “NOVEL FLUORENE DERIVATIVE COMPOUND AND USE THEREOF” (JD Bioscience Inc., priority 2022, dated 2024).

What was measured:
C57BL6J mice = experiment: Acute kidney ischemic reperfusion (IR) injury animal model; format: in vivo; conditions: 4 µg/kg and 8 µg/kg via tail vein; vs vehicle-treated IR group
Description: Vehicle and Compound 1 (4 µg/kg or 8 µg/kg) were administered to 8-week-old male C57BL6J mice via the tail vein 24 hours before, 1 hour before, and 12 hours after ischemic reperfusion (IR) surgery. The surgery was performed by blocking the artery leading to the kidney to induce ischemia for 37 minutes. The blocked artery was released, and 24 hours later, the mice were anesthetized and autopsied. Other part was used to synthesize cDNA, and a kidney damage marker, NGAL was identified by real-time PCR. And serum was separated from the blood, and creatinine, which is a kidney damage marker in the serum, was examined, and the results are shown in FIG. 3.

[1] = test system: bone marrow-derived dendritic cells (BMDCs); experiment: Inflammasome formation (IL-1β ELISA) in LPS/ATP-treated dendritic cells; format: cell-based, C57BL6 mice; conditions: for IL-1β: LPS 500 ng/mL + 5 mM ATP, supernatant; for inhibited IL-1β expression: compared to vehicle control group
Description: Furthermore, to verify the anti-inflammatory effect at a cellular level, bone marrow cells of C57BL6 mice were treated with 20 ng/mL of GM-CSF and IL-4, and 6 days later, bone marrow-derived dendritic cells (BMDCs) were collected. The BMDCs were prepared at 1×10^6 cells/mL and stabilized for one day, and then subsequent experiments were conducted. The above dendritic cells were treated with 500 ng/mL of LPS for 3 hours to prime pro-IL1 β, and then treated with Compound 1 (0 µM, 0.01 µM, 0.1 µM, 1 µM, and 10 µM) for 15 minutes. Next, 5 mM of ATP was treated, which induces inflammasome formation by converting pro-IL1β to IL-1β through pro-IL1β cleavage, and 30 minutes later, the concentration of IL-1β in the supernatant was measured by ELISA, and the results are shown in FIG. 10 and Table 3.

SMILES: CC(C(=O)NNc1ccc(F)cc1)n1cc(-c2cc(F)cc3c2-c2ccccc2C3(O)C(F)(F)F)cn1 (stereo not shown) [Example 1, 2-(4-(2-fluoro-9-hydroxy-9-(trifluoromethyl)-9H-fluoren-4-yl)-1H-pyrazol-1-yl)-N'-(4-fluorophenyl)propanehydrazide]
- RNA expression of NGAL (kidney) (C57BL6J mice): significantly reduced
- apoptosis of kidney tissue (TUNEL staining) (C57BL6J mice): significant reduction
- renal tubular tissue damage (H&E staining) (C57BL6J mice): significant reduction
- serum creatinine (C57BL6J mice): significantly reduced
- IL-1β ([1]; 0.01 µM): 1131.823 pg/mL
- IL-1β ([1]; 0.1 µM): 1009.825 pg/mL
- inhibited IL-1β expression ([1]; 0.1 µM): about 83.802%
- IL-1β ([1]; 1 µM): 907.2636 pg/mL
- IL-1β ([1]; 10 µM): 647.6982 pg/mL
- inhibited IL-1β expression ([1]; 10 µM): about 53.7504%
